Values joined by “and” are separate entries in the source; they are usually repeats but may differ in a detail not shown here. Equal values may be shown once.
Experiments:
Assay type in all cases: in vivo, corn (Zea mays)
[1] = system: hybrid seed production field, GHS1 or GHS2 female parent with MON88017 or nk603 male parent; assay: Yield of the hybrid seed harvested from female rows of glyphosate-treated GHS fields; conditions: for average yield of hybrid seed: GHS1 or GHS2 female, glyphosate V8 and V10 at 22 oz/ac, CMS-nk603 comparator yield 29.05 kg; for Average Wt (kg), yield of the hybrid seed: glyphosate treated V8-V10; for Total wt (KG), yield of the hybrid seed: glyphosate treated V8-V10 (22 oz/ac), seed harvested from female rows
Experimental: The yield of hybrid seed is important for maintaining profitability in hybrid seed production systems. […] GHS1 and GHS2 are used as the female parent in a hybrid seed production field with MON88017 or nk603 as the male parent. The GHS fields were treated with glyphosate (V8 and V10 at 22 oz/ac) and the seed harvested from the female rows. […] The average yield is 29.72 kilograms (kg) and 33.39 kg, respectively compared to the CMS-nk603 yield of 29.05 kg.

[2] = system: transgenic corn event GHS2 (LH198 germplasm crossed to LH287); assay: Percent anther extrusion (AE %) at silk emergence after glyphosate treatment, field split plot test; conditions: Event GHS-2
Description: (§1) Corn plants transformed with the DNA construct are produced and unique events that have the desired glyphosate tolerance phenotype are selected by treatment with glyphosate a various growth stages and at various rates of glyphosate. Optimal tassel and anther sensitivity to glyphosate can be determined by treatment with an effective dose of glyphosate during corn plant growth and then measuring the pollen shed or anther extrusion. Rapidly maturing corn inbred lines may have early tassel development and glyphosate treatments and rates can be adjusted as needed to produce male sterility in these inbred lines. Transgenic events for the glyphosate hybrid system were designated as event GHS1, GHS2 and GHS3, and selected by various glyphosate treatments to determine the rates and timing of glyphosate that provide the desired level of male sterility as measured by percent anther extrusion. Glyphosate was applied to a field containing the events using the following parameters: • Nozzle: Tee Jet Air Induction (AI) 110015-VS broadcast (green plus green adaptor) spaced on 30″ centers • GPA: 10-12 gallons per acre (GPA) • PSI: 30-35 pounds per square inch • Speed: 2-2.5 MPH • Nozzle Height: 16-18″ above “cup” of the whorl • Useful Conversions:
(§2) • Roundup Ultra®=3 lb acid equivalent (ae)/gal or 32 oz=0.75 lb ae/[…] • Roundup WeatherMax®—22 oz/acre=0.75 lb ae/acre • Nozzle calibration: Determine GPM (gallon per minute) output—Select nozzles and set PSI as specified above. Insure screens are all the same style and size. Collect output (30 sec minimum) of every nozzle at engine operating RPM equivalent to field conditions. Replicate 3 times for consistency and replace any nozzle with greater than +5% variation compared to other nozzles. Repeat until all nozzles are consistent. • Tractor speed—Determine sprayer speed in mph at above spray RPM. Measure off known distance (i.e. 100′) and measure 3 times for consistency. • Calibration of application equipment—The following formula was used to calculate spray output in GPA: GPA=5940×GPM (per nozzle), MPH×W; wherein W=Nozzle spacing (in inches) for broadcast spraying.
(§3) Transgenic events GHS1, GHS2, and GHS3 were treated with one or two applications of glyphosate (Roundup WeatherMax®) over the corn development stages V8-V12 (vegetative 8 leaf—vegetative 12 leaf). These development stages also correlate with pollen development in most inbred corn varieties. In this example, the transgenic events are in an LH198 germplasm crossed to LH287. The fertility score is a measure of the percent risk of anther extrusion (AE) observed at the time of silk emergence from the corn ear. The three events and a LH198DMSRR2 control (CMS germplasm with glyphosate tolerance) were treated with six glyphosate treatments (Table 4). The glyphosate treatments are single applications of 0.75 lb ae/ac at V8 stage (Trt 1), 0.75 lb ae/ac at V10 stage (Trt 2) and 0.54 lb ae/ac at V12 stage (Trt 3), and double applications of 0.75 lb ae/ac at V8 followed by 0.54 lb ae/ac at V12 (Trt 4), 0.75 lb ae/ac at V10 followed by 0.54 lb ae/ac at V12 (Trt 5), and 0.75 lb ae/ac at V8 followed by 0.75 lb ae/ac at V10 (Trt 6). The test was set up as a split plot design with 2 row plots and the glyphosate treatments applied in strips over all of the replications. FIG. 1 illustrates AE % as averaged across all spray treatments across each test plot and event.

[3] = system: LH198DMSRR2 control (CMS germplasm with glyphosate tolerance); assay: as above
Description: as §1, §2, §3

[4] = system: transgenic corn event GHS3 (LH198 germplasm crossed to LH287); assay: as above; conditions: Event GHS-3
Description: as §1, §2, §3

[5] = system: transgenic corn event GHS1 (LH198 germplasm crossed to LH287); assay: as above; conditions: Event GHS-1
Description: as §1, §2, §3

[6] = Trt 4: 0.75 lb ae/ac at V8 followed by 0.54 lb ae/ac at V12
[7] = Trt 5: 0.75 lb ae/ac at V10 followed by 0.54 lb ae/ac at V12
[8] = Trt 6: 0.75 lb ae/ac at V8 followed by 0.75 lb ae/ac at V10

O=C(O)CNCP(=O)(O)O [glyphosate, n-phosphonomethylglycine]
average yield of hybrid seed ([1]; MON88017 male): 29.72 kg | average yield of hybrid seed ([1]; nk603 male): 33.39 kg | Average Wt (kg), yield of the hybrid seed ([1]; female GHS1, average over MON88017 and NK603 male parents): 29.72 kg | Total wt (KG), yield of the hybrid seed ([1]; female GHS1, male MON88017): 25.9 kg and 31.5 kg | Total wt (KG), yield of the hybrid seed ([1]; female GHS1, male NK603): 32.16 kg and 29.35 kg | Average Wt (kg), yield of the hybrid seed ([1]; female GHS2, average over MON88017 and NK603 male parents): 33.39 kg | Total wt (KG), yield of the hybrid seed ([1]; female GHS2, male MON88017): 27.5 kg and 35.74 kg | Total wt (KG), yield of the hybrid seed ([1]; female GHS2, male NK603): 38.67 kg and 31.66 kg | AE (%) ([2]; Trt 1: 0.75 lb ae/ac at V8): 0.4% | AE (%) ([2]; Trt 2: 0.75 lb ae/ac at V10): 0.0% | AE (%) ([2]; Trt 3: 0.54 lb ae/ac at V12): ~3.0% | AE (%) [2, 6]: 0.0% | AE (%) [2, 7]: 0.0% | AE (%) [2, 8]: 0.0% | AE (%) ([3]; Trt 1: 0.75 lb ae/ac at V8): 0.1% | AE (%) ([3]; Trt 2: 0.75 lb ae/ac at V10): 0.1% | AE (%) ([3]; Trt 3: 0.54 lb ae/ac at V12): 0.1% | AE (%) [3, 6]: ~0.3% | AE (%) [3, 7]: ~0.3% | AE (%) [3, 8]: 0.0% | AE (%) ([4]; Trt 1: 0.75 lb ae/ac at V8): ~5.9% | AE (%) ([4]; Trt 2: 0.75 lb ae/ac at V10): 0.1% | AE (%) [4, 6]: 0.0% | AE (%) [4, 7]: 0.0% | AE (%) [4, 8]: 0.0% | AE (%) ([5]; Trt 2: 0.75 lb ae/ac at V10): 0.0% | AE (%) ([5]; Trt 3: 0.54 lb ae/ac at V12): ~12.1% | AE (%) [5, 6]: 0.0% | AE (%) [5, 7]: 0.0% | AE (%) [5, 8]: 0.0%

From US8158850B2, “Method to enhance yield and purity of hybrid crops” (priority 2007, dated 2012)
